Patent publication US6136781A, “LH-RH receptor antagonists” (Takeda Chemical Industries, Ltd., priority 1995, dated 2000)
Where two headings read alike, the source gives them in different places.

Conditions: amide bond, 15-membered ring, DMF

## Cc1ccc(S(=O)(=O)NC(=N)NCCC[C@H]2NC(=O)[C@H](C)NC(=O)[C@H](Cc3c[nH]c4ccccc34)NC(=O)[C@@H](C)NC(=O)[C@H](Cc3ccccc3)NC2=O)cc1 [cyclo(-Ala-D-Arg(Tos)-Phe-D-Ala-Trp-)]
From H-Trp-Ala-dArg(Tos)-Phe-dAla-OH, PyBOP/DIEA, 25.0 °C, 2 steps
  ring closure, yield after HPLC: 21.8%

## Cc1ccc(S(=O)(=O)NC(=N)NCCC[C@@H]2NC(=O)[C@H](Cc3ccccc3)NC(=O)[C@H](Cc3c[nH]c4ccccc34)NC(=O)[C@@H](C)NC(=O)[C@H](Cc3ccccc3)NC2=O)cc1 [cyclo(-Phe-Arg(Tos)-Phe-D-Ala-Trp-)]
From H-Trp-Phe-Arg(Tos)-Phe-dAla-OH, PyBOP/DIEA, 25.0 °C, 2 steps
  ring closure, yield after HPLC: 71.5%

## COc1cc(C)c(S(=O)(=O)NC(=N)NCCC[C@H]2NC(=O)[C@H](Cc3ccccc3)NC(=O)[C@H](Cc3c[nH]c4ccccc34)NC(=O)[C@@H](C)NC(=O)[C@H](Cc3ccccc3)NC2=O)c(C)c1C [cyclo(-Phe-D-Arg(Mtr)-Phe-D-Ala-Trp-)]
From H-dAla-Trp-Phe-dArg(Mtr)-Phe-OH, PyBOP/DIEA, 1.0 mM, 25.0 °C, 2 steps
  ring closure, yield after HPLC: 5.8%

## Cc1ccc(S(=O)(=O)NC(=N)NCCC[C@H]2NC(=O)[C@H](Cc3ccccc3)NC(=O)[C@H](Cc3c[nH]c4ccccc34)NC(=O)[C@@H](C)NC(=O)[C@H](Cc3ccc4ccccc4c3)NC2=O)cc1 [cyclo(-Phe-D-Arg(Tos)-Nal(2)-D-Ala-Trp-)]
From H-Trp-Phe-dArg(Tos)-Nal(2)-dAla-OH, PyBOP/DIEA, 25.0 °C, 2 steps
  ring closure, yield after HPLC: 15.5%

## Cc1ccc(S(=O)(=O)NC(=N)NCCC[C@H]2NC(=O)[C@H](Cc3ccccc3)NC(=O)[C@H](Cc3c[nH]c4ccccc34)NC(=O)[C@@H](C)NC(=O)[C@H](Cc3ccccc3)NC2=O)cc1 [cyclo(-Phe-D-Arg(Tos)-Phe-D-Ala-Trp-)]
From H-Trp-Phe-dArg(Tos)-Phe-dAla-OH, PyBOP/DIEA, 25.0 °C, 2 steps
  ring closure, yield after HPLC: 10.8%

## Cc1ccc(S(=O)(=O)NC(=N)NCCC[C@H]2NC(=O)[C@H](Cc3ccccc3)NC(=O)[C@H](Cc3c[nH]c4ccccc34)NC(=O)[C@@H](CC(C)C)NC(=O)[C@H](Cc3ccccc3)NC2=O)cc1 [cyclo(-Phe-D-Arg(Tos)-Phe-D-Leu-Trp-)]
From H-dLeu-Trp-Phe-dArg(Tos)-Phe-OH, PyBOP/DIEA, 25.0 °C, 2 steps
  ring closure, yield after HPLC: 29.4%

## Cc1ccc(S(=O)(=O)NC(=N)NCCC[C@H]2NC(=O)[C@H](Cc3ccccc3)NC(=O)[C@H](Cc3c[nH]c4ccccc34)NC(=O)[C@@H](C)NC(=O)[C@H](Cc3ccc(Cl)cc3)NC2=O)cc1 [cyclo(-Phe-D-Arg(Tos)-pClPhe-D-Ala-Trp-)]
From H-Trp-Phe-dArg(Tos)-pClPhe-dAla-OH, PyBOP/DIEA, 25.0 °C, 2 steps
  ring closure, yield after HPLC: 50.5%

## Cc1ccc(S(=O)(=O)NC(=N)NCCC[C@H]2NC(=O)[C@H](Cc3ccccc3)NC(=O)[C@H](Cc3c[nH]c4ccccc34)NC(=O)[C@@H](C)NC(=O)[C@H](Cc3ccc(F)cc3)NC2=O)cc1 [cyclo(-Phe-D-Arg(Tos)-pFPhe-D-Ala-Trp-)]
From H-Trp-Phe-dArg(Tos)-pFPhe-dAla-OH, PyBOP/DIEA, 25.0 °C, 2 steps
  ring closure, yield after HPLC: 65.6%

## Cc1ccc(S(=O)(=O)NC(=N)NCCC[C@H]2NC(=O)[C@H](c3ccccc3)NC(=O)[C@H](Cc3ccccc3)NC(=O)[C@@H](C)NC(=O)[C@H](Cc3ccccc3)NC2=O)cc1 [cyclo(-Phg-D-Arg(Tos)-Phe-D-Ala-Phe-)]
From H-Phe-Phg-dArg(Tos)-Phe-dAla-OH, PyBOP/DIEA, 25.0 °C, 2 steps
  ring closure, yield after HPLC: 13.1%

## Cc1ccc(S(=O)(=O)NC(=N)NCCC[C@H]2NC(=O)[C@H](c3ccccc3)NC(=O)[C@H](Cc3c[nH]c4ccccc34)NC(=O)[C@@H](C)NC(=O)[C@H](Cc3ccccc3)NC2=O)cc1 [cyclo(-Phg-D-Arg(Tos)-Phe-D-Ala-Trp-)]
From H-dAla-Trp-Phg-dArg(Tos)-Phe-OH, PyBOP/DIEA, 25.0 °C, 2 steps
  ring closure, yield after HPLC: 28.3%

## Cc1ccc(S(=O)(=O)NC(=N)NCCC[C@H]2NC(=O)[C@H](c3ccccc3)NC(=O)[C@H](Cc3c[nH]c4ccccc34)NC(=O)[C@@H](CO)NC(=O)[C@H](Cc3ccccc3)NC2=O)cc1 [cyclo(-Phg-D-Arg(Tos)-Phe-D-Ser-Trp-)]
From H-dSer-Trp-Phg-dArg(Tos)-Phe-OH, PyBOP/DIEA, 25.0 °C, 2 steps
  ring closure, yield after HPLC: 15.7%

## Cc1ccc(S(=O)(=O)NC(=N)NCCC[C@H]2NC(=O)[C@H](Cc3ccc(Cl)cc3)NC(=O)[C@H](Cc3c[nH]c4ccccc34)NC(=O)[C@@H](C)NC(=O)[C@H](Cc3ccccc3)NC2=O)cc1 [cyclo(-pClPhe-D-Arg(Tos)-Phe-D-Ala-Trp-)]
From H-Trp-pClPhe-dArg(Tos)-Phe-dAla-OH, PyBOP/DIEA, 25.0 °C, 2 steps
  ring closure, yield after HPLC: 7.5%

## Cc1ccc(S(=O)(=O)NC(=N)NCCC[C@H]2NC(=O)[C@H](Cc3ccc(F)cc3)NC(=O)[C@H](Cc3c[nH]c4ccccc34)NC(=O)[C@@H](C)NC(=O)[C@H](Cc3ccccc3)NC2=O)cc1 [cyclo(-pFPhe-D-Arg(Tos)-Phe-D-Ala-Trp-)]
From H-Trp-pFPhe-dArg(Tos)-Phe-dAla-OH, PyBOP/DIEA, 25.0 °C, 2 steps
  ring closure, yield after HPLC: 58.8%

## cyclo (-Arg-D-Lys (COCH2 CH2 CH2 CH2 CH2 Ph)-Tyr-D-Trp-Leu-)
DIEA (active ester), 3.12 mM, 5 steps
  ring closure, yield after HPLC: 26.8%

## cyclo(-Arg-D-Glu((2)-MeOPhp)-Tyr-D-Trp-Leu-)
DIEA (active ester), 1.07 mM, 4 steps
  ring closure, yield after HPLC: 9.2%
